Reference: US9278950B2, “Bicyclic aromatic carboxamide compounds useful as Pim kinase inhibitors” (Incyte Corporation, priority 2013, dated 2016)

Legend:
Assay type in all cases: biochemical
Pim-1 = target: T1, Pim-1 (Homo sapiens, UniProt P11309); test: Pim-1 kinase assay (Pim enzyme assays, Example A); conditions: 1 mM ATP; read-out: Pim1 IC50
T1 construct: purchased Invitrogen PV3503
Method: (§1) Pim-1 and Pim-3 kinase assays-20 μL reactions were run in white 384 well polystyrene plates dotted with 0.8 μL compound/DMSO in the assay buffer (50 mM Tris, pH 7.5, 0.01% Tween-20, 5 mM mgCl2, 0.01% BSA, 5 mM DTT), containing 0.05 μM Biotin-labeled BAD peptide substrate (AnaSpec 62269), 1 mM ATP, and […] (Pim-1, Invitrogen PV3503) or […] (Pim-3, Millipore 14-738) enzyme for 1 h at 25° C. Reactions were stopped by addition of 10 μL STOP Buffer (150 mM Tris, pH=7.5, 150 mM NaCl, 75 mM EDTA, 0.01% Tween-20, 0.3% BSA,) supplemented with Phospho-Bad (Ser 12) Antibody (Cell Signaling 9291) diluted 666-fold, and Streptavidin donor beads (PerkinElmer 6760002) along with Protein-A acceptor beads (PerkinElmer 6760137) at 15 μg/mL each. Supplementation of the STOP buffer with beads and stopping the reactions were done under reduced light. Prior to the stopping reactions STOP buffer with beads was preincubated for 1 h in the dark at room temperature. After stopping the reactions, plates were incubated for 1 h in the dark at room temperature before reading on a PHERAstar FS plate reader (BMG Labtech) under reduced light.

Pim2 [1] = target: T2, Pim2 (Homo sapiens, UniProt Q9P1W9); test: Pim-2 kinase assay (Pim enzyme assays, Example A); conditions: 1 mM ATP; read-out: Pim2 IC50
T2 construct: purchased Invitrogen PV3649
Method: (§2) Pim-2 kinase assay—20 μL reactions were run in white 384 well polystyrene plates dotted with 0.8 μL compound/DMSO in the assay buffer (50 mM Tris, pH 7.5, 0.01% Tween-20, 5 mM mgCl2, 0.01% BSA, 5 mM DTT), containing 0.05 μM Fluorescein-labeled CREBtide peptide substrate (Invitrogen PV3508), 1 mM ATP, and 1 nM enzyme (Invitrogen PV3649) for 2 h at 25° C. Reactions were stopped by addition of 10 μL TR-FRET Dilution Buffer (Invitrogen PV3574) with 30 mM EDTA and 1.5 nM LanthaScreen Tb-CREB pSer133 antibody (Invitrogen PV3566). After 30 min. incubation at room temperature, plates were read on a PHERAstar FS plate reader (BMG Labtech).

Pim2 [2] = target: T2, Pim2; test: Pim2 assay analogous to Example A performed under Km ATP conditions; conditions: Km ATP conditions rather than 1 mM ATP
Method: as §2
Although the above in vitro assays are conducted at 1 mM ATP compounds can also be evaluated for potency and in vitro activity against PIM targets utilizing Km conditions, where the concentration of ATP is set to the Km value and the assay is more sensitive to PIM inhibition activity.

Pim-3 = target: T3, Pim-3 (Homo sapiens, UniProt Q86V86); test: Pim-3 kinase assay (Pim enzyme assays, Example A); conditions: 1 mM ATP; read-out: Pim3 IC50
T3 construct: purchased Millipore 14-738
Method: as §1

T1 sequence (P11309 whole entry): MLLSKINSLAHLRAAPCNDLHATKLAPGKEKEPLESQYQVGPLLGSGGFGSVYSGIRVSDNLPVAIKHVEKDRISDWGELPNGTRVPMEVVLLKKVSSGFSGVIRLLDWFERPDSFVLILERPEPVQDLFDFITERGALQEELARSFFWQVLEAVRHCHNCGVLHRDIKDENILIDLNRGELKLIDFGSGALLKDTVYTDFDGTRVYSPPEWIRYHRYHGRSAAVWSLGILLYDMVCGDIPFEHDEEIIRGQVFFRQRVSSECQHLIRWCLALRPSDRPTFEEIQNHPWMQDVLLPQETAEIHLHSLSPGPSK
T2 sequence (Q9P1W9 whole entry): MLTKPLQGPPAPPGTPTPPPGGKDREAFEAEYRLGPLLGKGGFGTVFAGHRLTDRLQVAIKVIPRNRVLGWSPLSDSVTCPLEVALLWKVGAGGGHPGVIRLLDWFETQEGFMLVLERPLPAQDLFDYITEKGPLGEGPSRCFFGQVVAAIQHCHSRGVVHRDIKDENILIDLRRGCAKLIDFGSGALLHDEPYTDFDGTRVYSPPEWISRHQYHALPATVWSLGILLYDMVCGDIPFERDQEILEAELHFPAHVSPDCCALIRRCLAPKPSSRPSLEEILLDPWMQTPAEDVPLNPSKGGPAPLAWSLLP

| SMILES | IC50 (Pim-1) [nM] | IC50 (Pim2 [1]) [nM] | IC50 (Pim2 [2]) [nM] | IC50 (Pim-3) [nM] |
| --- | --- | --- | --- | --- |
| NC(=O)c1ccccc1-c1ccc2cc(N)c(C(=O)Nc3cnccc3N3CCC[C@H](N)C3)nc2c1 [Example 6, 3-Amino-7-[2-(aminocarbonyl)phenyl]-N-{4-[(3S)-3-aminopiperidin-1-yl]pyridin-3-yl}quinoline-2-carboxamide] | > 40 | > 2000 | < 100 | > 40 |
| CCc1ccc2cc(N)c(C(=O)Nc3cnc4c(c3N3CCC[C@H](N)C3)CCC4O)nc2c1 (single isomer, unassigned) [22 isomer 1] | > 40 | > 2000 | 100 to 1000 | > 40 |
| NC(=O)c1cccc(F)c1-c1ccc2cc(N)c(C(=O)Nc3cnccc3N3CCC[C@H](N)C3)nc2c1 [Example 8, 3-Amino-7-[2-(aminocarbonyl)-6-fluorophenyl]-N-{4-[(3S)-3-aminopiperidin-1-yl]pyridin-3-yl}quinoline-2-carboxamide] | > 40 | > 2000 | – | ≤ 100 |
| C[C@H]1CN(c2ccncc2NC(=O)c2nc3cc(N4CCN(C)CC4)ccc3cc2N)C[C@@H](N)[C@H]1n1ccnn1 [Example 54, 3-Amino-N-{4-[(3R,4S,5S)-3-amino-5-methyl-4-(1H-1,2,3-triazol-1-yl)piperidin-1-yl]pyridin-3-yl}-7-(4-methylpiperazin-1-yl)quinoline-2-carboxamide] | ≤ 100 | > 2000 | – | ≤ 100 |
| C[C@H]1CN(c2ccncc2NC(=O)c2nc3cc(N4CCN(C)C(=O)C4)ccc3cc2N)C[C@@H](N)[C@@H]1O [Example 48, 3-Amino-N-{4-[(3R,4R,5S)-3-amino-4-hydroxy-5-methylpiperidin-1-yl]pyridin-3-yl}-7-(4-methyl-3-oxopiperazin-1-yl)quinoline-2-carboxamide] | ≤ 100 | ≤ 100 | – | ≤ 100 |
| N#Cc1cccc(F)c1-c1ccc2cc(N)c(C(=O)Nc3cnccc3N3CCC[C@H](N)C3)nc2c1 [Example 7, 3-Amino-N-{4-[(3S)-3-aminopiperidin-1-yl]pyridin-3-yl}-7-(2-cyano-6-fluorophenyl)quinoline-2-carboxamide] | ≤ 100 | ≤ 100 | – | ≤ 100 |
| Nc1cc2ccc(C3CCNCC3)cc2nc1C(=O)Nc1cnccc1N1CCC[C@H](N)C1 [Example 1, 3-Amino-N-{4-[(3S)-3-aminopiperidin-1-yl]pyridin-3-yl}-7-piperidin-4-ylquinoline-2-carboxamide] | ≤ 100 | 100 to 1000 | – | ≤ 100 |
| N#Cc1ccccc1-c1ccc2cc(N)c(C(=O)Nc3cnccc3N3CCC[C@H](N)C3)nc2c1 [Example 5, 3-Amino-N-{4-[(3S)-3-aminopiperidin-1-yl]pyridin-3-yl}-7-(2-cyanophenyl)quinoline-2-carboxamide] | ≤ 100 | ≤ 100 | – | ≤ 100 |
| Cn1nccc1-c1ccc2cc(N)c(C(=O)Nc3cnccc3N3CCC[C@H](N)C3)nc2c1 [Example 4, 3-Amino-N-{4-[(3S)-3-aminopiperidin-1-yl]pyridin-3-yl}-7-(1-methyl-1H-pyrazol-5-yl)quinoline-2-carboxamide] | ≤ 100 | 1000 to 10000 | – | ≤ 100 |
| CN1CCC(c2ccc3cc(N)c(C(=O)Nc4cnccc4N4C[C@@H](N)C[C@@H](C(F)(F)F)C4)nc3c2)CC1 [Example 44, 3-Amino-N-{4-[(3S,5R)-3-amino-5-(trifluoromethyl)piperidin-1-yl]pyridin-3-yl}-7-(1-methylpiperidin-4-yl)quinoline-2-carboxamide] | ≤ 100 | ≤ 100 | – | ≤ 100 |
| C[C@H]1CN(c2ccncc2NC(=O)c2nc3cc(C4CCOCC4)ccc3cc2N)C[C@@H](N)[C@@H]1O [Example 41, 3-Amino-N-{4-[(3R,4R,5S)-3-amino-4-hydroxy-5-methylpiperidin-1-yl]pyridin-3-yl}-7-(tetrahydro-2H-pyran-4-yl)quinoline-2-carboxamide] | ≤ 100 | ≤ 100 | – | ≤ 100 |
| C[C@@H]1C[C@H](N)CN(c2ccncc2NC(=O)c2nc3cc(N4CCCCC4=O)ccc3cc2N)C1 [Example 45, 3-Amino-N-{4-[(3S,5R)-3-amino-5-methylpiperidin-1-yl]pyridin-3-yl}-7-(2-oxopiperidin-1-yl)quinoline-2-carboxamide] | ≤ 100 | 100 to 1000 | – | ≤ 100 |
| Nc1cc2ccc(CN3CCCC3)cc2nc1C(=O)Nc1cnccc1N1CCC[C@H](N)C1 [Example 19, 3-Amino-N-{4-[(3S)-3-aminopiperidin-1-yl]pyridin-3-yl}-7-(pyrrolidin-1-ylmethyl)quinoline-2-carboxamide] | ≤ 100 | > 2000 | – | ≤ 100 |
| Nc1cc2ccc(C3CCOCC3)cc2nc1C(=O)Nc1cnccc1N1CCC[C@H](N)C1 [Example 2, 3-Amino-N-{4-[(3S)-3-aminopiperidin-1-yl]pyridin-3-yl}-7-(tetrahydro-2H-pyran-4-yl)quinoline-2-carboxamide] | ≤ 100 | 100 to 1000 | – | ≤ 100 |
| CC(F)c1ccc2cc(N)c(C(=O)Nc3cnccc3N3CCC[C@H](N)C3)nc2c1 (stereo partly drawn) [Example 18, 3-Amino-N-{4-[(3S)-3-aminopiperidin-1-yl]pyridin-3-yl}-7-(1-fluoroethyl)quinoline-2-carboxamide] | ≤ 100 | 100 to 1000 | – | ≤ 100 |
| C[C@@H]1C[C@H](N)CN(c2ccncc2NC(=O)c2nc3cc(N4CCOCC4)ccc3cc2N)C1 [Example 34, 3-Amino-N-{4-[(3S,5R)-3-amino-5-methylpiperidin-1-yl]pyridin-3-yl}-7-morpholin-4-ylquinoline-2-carboxamide] | ≤ 100 | ≤ 100 | – | ≤ 100 |
| Nc1cc2ccc(-c3c(F)cccc3F)cc2nc1C(=O)Nc1cnccc1N1CCC[C@H](N)C1 [Example 3, 3-Amino-N-{4-[(3S)-3-aminopiperidin-1-yl]pyridin-3-yl}-7-(2,6-difluorophenyl)quinoline-2-carboxamide] | ≤ 100 | 100 to 1000 | – | ≤ 100 |
| C[C@@H]1C[C@H](N)CN(c2ccncc2NC(=O)c2nc3cc(N4CCN(C)C(=O)C4)ccc3cc2N)C1 [Example 46, 3-Amino-N-{4-[(3S,5R)-3-amino-5-methylpiperidin-1-yl]pyridin-3-yl}-7-(4-methyl-3-oxopiperazin-1-yl)quinoline-2-carboxamide] | ≤ 100 | 100 to 1000 | – | ≤ 100 |
| C[C@H]1CN(c2ccncc2NC(=O)c2nc3cc(N4CCCCC4=O)ccc3cc2N)C[C@@H](N)[C@@H]1O [Example 49, 3-Amino-N-{4-[(3R,4R,5S)-3-amino-4-hydroxy-5-methylpiperidin-1-yl]pyridin-3-yl}-7-(2-oxopiperidin-1-yl)quinoline-2-carboxamide] | ≤ 100 | 100 to 1000 | – | ≤ 100 |
| CCc1ccc2cc(N)c(C(=O)Nc3cncc(C)c3N3CCC[C@H](N)C3)nc2c1 [Example 30, 3-Amino-N-{4-[(3S)-3-aminopiperidin-1-yl]-5-methylpyridin-3-yl}-7-ethylquinoline-2-carboxamide] | ≤ 100 | ≤ 100 | – | ≤ 100 |
